Laboratory results taken from patent US6083977A, “Trienoic retinoid compounds and methods” (Ligand Pharmaceuticals Incorporated, priority 1995, dated 2000).

Experiments:
[1] = tested on: ornithine decarboxylase (ODC); assay: Ornithine decarboxylase assay: inhibition of TPA induction of ODC; assay type: cell-based
RARs = assay: Co-transfection assay, RAR subfamily; assay type: cell-based, human
Experimental: (§1) Utilizing the "cis-trans" or "co-transfection" assay described by Evans et al., Science, 240:889-95 (May 13, 1988), the disclosure of which is herein incorporated by reference, the retinoid compounds of the present invention were tested and found to have strong, specific activity as either selective RAR agonists, selective RXR agonists, or as pan-agonist activators of both RAR and RXR receptors. This assay is described in further detail in U.S. Pat. Nos. 4,981,784 and 5,071,773, the disclosures of which are incorporated herein by reference.
(§2) The co-transfection assay provides a method for identifying functional agonists which mimic, or antagonists which inhibit, the effect of native hormones, and quantifying their activity for responsive IR proteins. In this regard, the co-transfection assay mimics an in vivo system in the laboratory. Importantly, activity in the co-transfection assay correlates very well with known in vivo activity, such that the co-transfection assay functions as a qualitative and quantitative predictor of a tested compounds in vivo pharmacology. See, e.g., T. Berger et al. 41 J. Steroid Biochem. Molec. Biol. 773 (1992), the disclosure of which is herein incorporated by reference.
(§3) In the co-transfection assay, a cloned cDNA for an IR (e.g., human RARα, RARβ, RXRγ) under the control of a constitutive promoter (e.g., the SV 40 promoter) is introduced by transfection (a procedure to induce cells to take up foreign genes) into a background cell substantially devoid of endogenous IRs. This introduced gene directs the recipient cells to make the IR protein of interest. A second gene is also introduced (co-transfected) into the same cells in conjunction with the IR gene. This second gene, comprising the cDNA for a reporter protein, such as firefly luciferase (LUC), is controlled by an appropriate hormone responsive promoter containing a hormone response element (HRE). This reporter plasmid functions as a reporter for the transcription-modulating activity of the target IR. Thus, the reporter acts as a surrogate for the products (mRNA then protein) normally expressed by a gene under control of the target receptor and its native hormone.
The co-transfection assay can detect small molecule agonists or antagonists of target IRs. Exposing the transfected cells to an agonist ligand compound increases reporter activity in the transfected cells. This activity can be conveniently measured, e.g., by increasing luciferase production, which reflects compound-dependent, IR-mediated increases in reporter transcription. […] . Increasing concentrations of a suspected antagonist will decrease the reporter signal (e.g., luciferase production). The co-transfection assay is therefore useful to detect both agonists and antagonists of specific IRs. Furthermore, it determines not only whether a compound interacts with a particular IR, but whether this interaction mimics (agonizes) or blocks (antagonizes) the effects of the native regulatory molecules on target gene expression, as well as the specificity and strength of this interaction. […]

RARs or RXRs = assay: Co-transfection assay, RAR and RXR receptors; assay type: cell-based; conditions: for potency profile compared to 9-cis retinoic acid (in words): relative to 9-cis
Experimental: as §1, §2, §3
The co-transfection assay can detect small molecule agonists or antagonists of target IRs. Exposing the transfected cells to an agonist ligand compound increases reporter activity in the transfected cells. This activity can be conveniently measured, e.g., by increasing luciferase production, which reflects compound-dependent, IR-mediated increases in reporter transcription. […] . Increasing concentrations of a suspected antagonist will decrease the reporter signal (e.g., luciferase production). The co-transfection assay is therefore useful to detect both agonists and antagonists of specific IRs. Furthermore, it determines not only whether a compound interacts with a particular IR, but whether this interaction mimics (agonizes) or blocks (antagonizes) the effects of the native regulatory molecules on target gene expression, as well as the specificity and strength of this interaction.
To determine RAR and/or RXR agonist activity of the compounds of the present invention, the CV-1 cells were transiently transfected by calcium phosphate coprecipitation according to the procedure of Berger et al., 41 J. Steroid Biochem. Mol. Biol., 733 (1992) with the following receptor expressing plasmids: pRShRARα: Giguere et al., 330 Nature, 624 (1987); pRShRARβ and pRShRARγ, Ishikawa et al., 4 Mol. Endocrin., 837 (1990); pRShRXRα, Mangelsdorf et al., 345 Nature, 224 (1990); and pRSmRXRβ and pRSmRXRγ, Mangelsdorf et al., 6 Genes & Devel., 329 (1992), the disclosures of which are herein incorporated by reference.

RAR and RXR receptors = assay: Binding to the RAR and RXR receptors; conditions: relative to ATRA (RAR) and 9-cis (RXR)

With CCOC(=O)/C=C(C)/C=C/C=C(/C)c1cc(C(C)(C)C)cc(C(C)(C)C)c1 [Compound 8, Ethyl (2E, 4E, 6Z)-7-(3,5-di-t-butylphenyl)-3-methylocta-2,4,6-trienoate] as the compound, how does the “retinoid activity of ester analogs (in words)” value [1] read?
The value was “exhibit retinoid activity”.

With CCOC(=O)/C=C(C)/C=C/C=C(\C)c1cc(C(C)(C)C)cc(C(C)(C)C)c1 [Compound 7, Ethyl (2E, 4E, 6E)-7-(315-di-t-butylphenyl)-3-methylocta-2,4,6-trienoate] as the compound, how does the “retinoid activity of ester analogs (in words)” value [1] read?
The value was “exhibit retinoid activity”.

With CC(/C=C/C=C1\CCOc2c1cc(C(C)(C)C)cc2C(C)(C)C)=C\C(=O)O [Compound 39, (2E,4E,6E)-6-(6,8,-Di-t-butylchroman-4-ylidene)-3-methylhexa-2,4,6-trienoic acid] as the compound, how does the “RAR activity (in words)” value (RARs) read?
The value was “extremely potent RAR active compounds”.

With CC(/C=C/C=C(\C)c1cc(C(F)(F)F)cc(C(F)(F)F)c1)=C\C(=O)O [Compound 41, (2E, 4E, 6E)-7-(3,5-Di-trifluoromethylphenyl)-3-methylocta-2,4,6-trienoic acid] as the compound, how does the “RAR activity (in words)” value (RARs) read?
Its value is “extremely potent RAR active compounds”.

With COC(/C=C/C=C(\C)c1ccc(C(C)(C)C)cc1)=C/C(=O)O [D, (2E,4E,6E)-3-methoxy-7-(4-t-butylphenyl)octa-2,4,6-trienoic acid] as the compound, how does the “activity on any of the RARs or RXRs (in words)” value (“activity on any” below) (RARs or RXRs) read?
The value was “no, or virtually no, activity”.

With COc1cc(C)c(/C=C/C=C/C=C(\C)C(=O)O)c(C)c1C [C, (2E,4E,6E)-2-methyl-7-(2,3,6-trimethyl-4-methoxyphenyl)hepta-2,4,6-trienoic acid] as the compound, how does the “activity on any” value (RARs or RXRs) read?
Its value is “no, or virtually no, activity”.

How did the “activity on any” value (RARs or RXRs) turn out when COc1ccc(/C(C)=C/C=C/C(C)=C/C(=O)O)cc1 [B, (2E, 4E,6E)-3-methyl-7-(4-methoxyphenyl)octa-2,4,6-trienoic acid] was run?
Its value is “no, or virtually no, activity”.

Which “potency profile compared to 9-cis retinoic acid (in words)” value (RARs or RXRs) does the source give for C/C(=C/C=C/C(C)=C/C(=O)O)c1cc(C(C)C)cc(C(C)C)c1 [Compound 43, (2E, 4E, 6Z)-7-(3,5-Di-isopropylphenyl)-3-methylocta-2,4,6-trienoic acid] here?
Its value is “superior potency profile”.

How did the “activity on any” value (RARs or RXRs) turn out when COc1ccc(/C(C)=C/C=C/C(C)=C/C(=O)O)cc1OC [A, (2E,4E,6E)-3-methyl-7-(3,4-dimethoxyphenyl)octa-2,4,6-trienoic acid] was run?
The value was “no, or virtually no, activity”.

Which results are given for COc1c(C(C)(C)C)cc(/C(C)=C/C=C/C(C)=C/C(=O)O)cc1C(C)(C)C [Compound 47, (2E, 4E, 6E) -3-Methyl-7-(3,5-di-t-butyl-4-methoxyphenyl)octa-2,4,6-trienoic acid]?
RAR activity (in words) (RARs): extremely potent RAR active compounds; RAR isoform selectivity (in words) (RARs): selectivity on RARβ and RARγ

C/C(=C/C=C/C(C)=C/C(=O)O)c1cc(C(C)(C)C)cc(C(C)(C)C)c1 [Compound 10, (2E, 4E, 6Z)-7-(3,5-Di-t-butylphenyl)-3-methylocta-2,4,6-trienoic acid] was tested. Which “potency profile compared to 9-cis retinoic acid (in words)” value (RARs or RXRs) did it give?
The value was “superior potency profile”.

What about the “binding compared to ATRA and 9-cis (in words)” value (RAR and RXR receptors) of the same compound?
The value was “equal or superior binding”.
